Patent publication US20240408219A1, “BICYCLIC PEPTIDE LIGAND DRUG CONJUGATES” (priority 2021, published 2024)
“And” between values parts separate entries of the source, which are not always exact repeats. Equal entries are not always repeated. Numbered stars: 1 amine (or outer) side, 2 acyl side, 3 side chain; on linkers, the order of the positions; unused ones are H or OH. Bridge positions count the residues as written; N and C are the ends. Square brackets hold non-standard residues; d marks the D form. Ends that are not written are not given here. 1Nal = N[C@@H](Cc1cccc2ccccc12)C(=O)O; TBMB = c1c(C[*:1])cc(C[*:3])cc1C[*:2]; Tle = CC(C)(C)[C@H](N)C(=O)O; βAla = NCCC(=O)O; Sar = CNCC(=O)O

Test system: HT1080 xenograft
Assay: In vivo efficacy test in HT1080 xenograft in BALB/c nude mice (Example 1)
Procedure: [table] • Species: Mus Musculus • Strain: […] Shanghai LC Laboratory Animal Co., LTD. […] The tumor cells were routinely subcultured twice weekly by trypsin-EDTA treatment. The cells growing in an exponential growth phase were harvested and counted for tumor inoculation. […] The test article administration and the animal numbers in each group were shown in the experimental design table. […] All the procedures related to animal handling, care and the treatment in the study were performed according to the guidelines approved by the Institutional Animal Care and Use Committee (IACUC) of WuXi AppTec, following the guidance of the Association for Assessment and Accreditation of Laboratory Animal Care (AAALAC). At the time of routine monitoring, the animals were daily checked for any effects of tumor growth and treatments on normal behavior such as mobility, food and water consumption (by looking only), body weight gain/loss, eye/hair matting and any other abnormal effect as stated in the protocol. Death and observed clinical signs were recorded on the basis of the numbers of animals within each subset. The major endpoint was to see if the tumor growth could be delayed or mice could be cured. […] The tumor size was then used for calculations of T/C value. The T/C value (in percent) is an indication of antitumor effectiveness; T and C are the mean volumes of the treated and control groups, respectively, on a given day. TGI was calculated for each group using the formula: […] Ti is the average tumor volume of a treatment group on a given day, TO is the average tumor volume of the treatment group on the day of treatment start, Vi is the average tumor volume of the vehicle control group on the same day with Ti, and VO is the average tumor volume of the vehicle group on the day of treatment start. Summary statistics, including mean and the standard error of the mean (SEM), are provided for the tumor volume of each group at each time point. Statistical analysis of difference in tumor volume among the groups was conducted on the data obtained at the best therapeutic time point after the final dose. A one-way ANOVA was performed to compare tumor volume among groups, and when a significant F-statistics (a ratio of treatment variance to the error variance) was obtained, comparisons between groups were carried out with Games-Howell test. All data were analyzed using Prism.

BT17BDC70: Reference bicyclic peptide drug conjugate (Tet-MMAE); BICY comprises βAla-Sar10-A-(SEQ ID NO: 1) ([βAla][Sar][Sar][Sar][Sar][Sar][Sar][Sar][Sar][Sar][Sar]AC[dA]NE[1Nal][dA]CEDFYD[Tle]C-NH2; linker 13-19-26 via TBMB; also: Tet-MMAE conjugate)
Antitumor activity (in words) (0.1 mg/kg biw): did not produce significant antitumor activity | Antitumor activity (in words) (0.3 mg/kg biw): did not produce significant antitumor activity | Tumor volume (mean ± SEM) (0.1 mpk iv biw, day 0 after the start of treatment): 170 ± 21 mm^3 | Tumor volume (mean ± SEM) (0.1 mpk iv biw, day 2): 400 ± 45 mm^3 | Tumor volume (mean ± SEM) (0.1 mpk iv biw, day 4): 557 ± 23 mm^3 | Tumor volume (mean ± SEM) (0.1 mpk iv biw, day 7): 1017 ± 180 mm^3 | Tumor volume (mean ± SEM) (0.1 mpk iv biw, day 9): 1102 ± 295 mm^3 | Tumor volume (mean ± SEM) (0.1 mpk iv biw, day 11): 1133 ± 203 mm^3 | T/C (0.1 mpk iv biw, day 14): 129.9% | TGI (0.1 mpk iv biw, day 14): −36.3% | Tumor volume (mean ± SEM) (0.1 mpk iv biw, day 14): 1315 mm^3 and 1315 ± 287 mm^3 | Tumor volume (mean ± SEM) (0.3 mpk iv biw, day 0 after the start of treatment): 170 ± 27 mm^3 | Tumor volume (mean ± SEM) (0.3 mpk iv biw, day 2): 371 ± 63 mm^3 | Tumor volume (mean ± SEM) (0.3 mpk iv biw, day 4): 501 ± 91 mm^3 | Tumor volume (mean ± SEM) (0.3 mpk iv biw, day 7): 703 ± 69 mm^3 | Tumor volume (mean ± SEM) (0.3 mpk iv biw, day 9): 695 ± 60 mm^3 | Tumor volume (mean ± SEM) (0.3 mpk iv biw, day 11): 745 ± 60 mm^3 | T/C (0.3 mpk iv biw, day 14): 89.2% | TGI (0.3 mpk iv biw, day 14): 12.8% | Tumor volume (mean ± SEM) (0.3 mpk iv biw, day 14): 903 mm^3 and 903 ± 67 mm^3 | Antitumor activity (in words) (over all doses tested): did not produce significant antitumor activity
